We go through three molecules from paper PMC3747596 (PLoS ONE, 2013).

SMILES strings stand for the structures. Like-named read-outs stand apart in the source and are kept apart here.

In one data set the target is T1, α1D (Homo sapiens, UniProt P25100).
T1 sequence (P25100 1-572): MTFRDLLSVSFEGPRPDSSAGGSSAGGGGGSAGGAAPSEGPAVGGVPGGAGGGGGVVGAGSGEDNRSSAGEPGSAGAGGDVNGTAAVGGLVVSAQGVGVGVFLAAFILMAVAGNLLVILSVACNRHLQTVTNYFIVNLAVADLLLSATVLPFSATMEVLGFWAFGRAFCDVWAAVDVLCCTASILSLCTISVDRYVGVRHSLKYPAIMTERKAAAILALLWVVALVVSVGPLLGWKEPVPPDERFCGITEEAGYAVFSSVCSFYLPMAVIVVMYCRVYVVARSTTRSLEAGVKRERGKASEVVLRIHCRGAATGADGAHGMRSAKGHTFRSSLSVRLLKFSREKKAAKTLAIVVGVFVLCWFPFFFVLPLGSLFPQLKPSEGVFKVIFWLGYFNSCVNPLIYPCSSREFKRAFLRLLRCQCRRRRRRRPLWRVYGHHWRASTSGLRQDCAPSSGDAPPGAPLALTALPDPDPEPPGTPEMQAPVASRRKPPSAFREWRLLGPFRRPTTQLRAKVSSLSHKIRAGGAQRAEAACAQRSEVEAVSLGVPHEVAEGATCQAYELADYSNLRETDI
Description: Radioligand displacement, α1D. The data set is classed as binding.

The target of the next data set is T2, 5-HT2c (Homo sapiens, UniProt P28335).
T2 sequence (P28335 33-458): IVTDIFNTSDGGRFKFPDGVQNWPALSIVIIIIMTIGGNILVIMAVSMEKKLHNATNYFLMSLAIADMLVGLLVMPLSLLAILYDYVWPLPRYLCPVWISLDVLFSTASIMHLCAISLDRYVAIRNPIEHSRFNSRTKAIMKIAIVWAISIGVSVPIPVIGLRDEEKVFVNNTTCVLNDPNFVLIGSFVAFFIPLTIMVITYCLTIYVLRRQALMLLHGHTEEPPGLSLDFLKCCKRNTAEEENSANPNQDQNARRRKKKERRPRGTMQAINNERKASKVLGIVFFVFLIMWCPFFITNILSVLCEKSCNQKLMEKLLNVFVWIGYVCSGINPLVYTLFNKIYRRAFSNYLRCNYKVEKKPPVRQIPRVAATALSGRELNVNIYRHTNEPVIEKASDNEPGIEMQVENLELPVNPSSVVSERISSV
In words: Radioligand displacement, 5-HT2c. The data set is classed as binding.

In data set [1] the target is NMDA receptors, phencyclidine (cation channel) site. Description: Radioligand displacement, NMDA. Conditions: for Ki: [3H] radioligand MK801, Rat, Brain. The data set is classed as binding, Rat.
A further data set addresses T3, α1B (Homo sapiens, UniProt P35368).
T3 sequence (P35368 1-520): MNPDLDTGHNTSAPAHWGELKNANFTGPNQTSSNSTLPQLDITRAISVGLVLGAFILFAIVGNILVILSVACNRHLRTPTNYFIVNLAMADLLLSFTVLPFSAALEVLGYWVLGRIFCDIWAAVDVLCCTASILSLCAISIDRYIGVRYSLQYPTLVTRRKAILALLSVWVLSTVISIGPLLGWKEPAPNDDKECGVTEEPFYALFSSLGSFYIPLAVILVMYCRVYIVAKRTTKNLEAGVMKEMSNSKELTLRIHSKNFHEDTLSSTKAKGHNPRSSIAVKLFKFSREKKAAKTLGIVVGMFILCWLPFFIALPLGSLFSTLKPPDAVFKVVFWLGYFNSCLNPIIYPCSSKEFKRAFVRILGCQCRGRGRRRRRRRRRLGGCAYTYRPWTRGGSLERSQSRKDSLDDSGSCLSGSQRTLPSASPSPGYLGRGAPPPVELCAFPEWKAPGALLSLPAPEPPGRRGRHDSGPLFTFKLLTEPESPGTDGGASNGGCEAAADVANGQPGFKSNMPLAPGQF
In words: Radioligand displacement, α1B. Type of data set: binding.

Another data set addresses H3 (Cavia porcellus, UniProt Q9JI35). Description: Radioligand displacement, H3. Type of data set: binding, Guinea Pig.
For a further data set, the target named is M4 (Homo sapiens, UniProt P08173). Description: Radioligand displacement, M4. The data set is classed as binding.
The next data set addresses 5-HT1e (Homo sapiens, UniProt P28566). In words: Radioligand displacement, 5-HT1e. The data set is classed as binding.
The next data set deals with mice. The conditions noted are these: mice, cited from earlier work.
Another data set deals with D1 (Homo sapiens, UniProt P21728). In words: Radioligand displacement, D1. The data set is classed as binding.
In the next data set the target is T4, α2A (Homo sapiens, UniProt P08913).
T4 sequence (P08913 1-465): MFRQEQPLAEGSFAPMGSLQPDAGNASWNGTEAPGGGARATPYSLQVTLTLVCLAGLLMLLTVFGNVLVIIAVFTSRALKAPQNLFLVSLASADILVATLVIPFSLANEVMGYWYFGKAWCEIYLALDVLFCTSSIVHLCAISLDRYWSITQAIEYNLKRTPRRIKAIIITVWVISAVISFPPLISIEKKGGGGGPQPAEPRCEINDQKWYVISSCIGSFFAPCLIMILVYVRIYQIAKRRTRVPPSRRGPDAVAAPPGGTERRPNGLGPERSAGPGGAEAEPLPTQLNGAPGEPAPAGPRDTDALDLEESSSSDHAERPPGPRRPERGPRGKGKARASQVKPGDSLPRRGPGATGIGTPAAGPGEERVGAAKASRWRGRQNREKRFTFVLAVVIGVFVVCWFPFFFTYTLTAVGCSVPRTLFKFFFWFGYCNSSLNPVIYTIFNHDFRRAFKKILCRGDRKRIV
Description: Radioligand displacement, α2A.

The next data set concerns the target D3 (Homo sapiens, UniProt P35462). Description: Radioligand displacement, D3. The data set is classed as binding.
The next data set has as its target 5-HT1b (Homo sapiens, UniProt P28222). In words: Radioligand displacement, 5-HT1b. The data set is classed as binding.
The mark [2] stands for this setting: Ki, [3H] radioligand Prazosin, Human, Cloned.

M4, sequence (P08173 whole entry): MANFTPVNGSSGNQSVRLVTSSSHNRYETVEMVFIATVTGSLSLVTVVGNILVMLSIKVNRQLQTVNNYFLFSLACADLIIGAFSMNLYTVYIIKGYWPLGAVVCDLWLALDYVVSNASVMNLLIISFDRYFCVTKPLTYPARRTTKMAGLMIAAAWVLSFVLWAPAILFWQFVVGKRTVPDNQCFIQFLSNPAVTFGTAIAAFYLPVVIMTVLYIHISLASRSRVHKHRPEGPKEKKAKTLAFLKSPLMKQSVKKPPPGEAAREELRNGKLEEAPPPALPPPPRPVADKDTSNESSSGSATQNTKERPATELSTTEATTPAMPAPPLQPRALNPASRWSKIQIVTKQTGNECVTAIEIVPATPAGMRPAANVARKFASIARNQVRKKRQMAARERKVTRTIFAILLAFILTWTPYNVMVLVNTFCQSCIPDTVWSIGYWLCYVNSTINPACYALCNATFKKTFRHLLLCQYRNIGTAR
D1, sequence (P21728 whole entry): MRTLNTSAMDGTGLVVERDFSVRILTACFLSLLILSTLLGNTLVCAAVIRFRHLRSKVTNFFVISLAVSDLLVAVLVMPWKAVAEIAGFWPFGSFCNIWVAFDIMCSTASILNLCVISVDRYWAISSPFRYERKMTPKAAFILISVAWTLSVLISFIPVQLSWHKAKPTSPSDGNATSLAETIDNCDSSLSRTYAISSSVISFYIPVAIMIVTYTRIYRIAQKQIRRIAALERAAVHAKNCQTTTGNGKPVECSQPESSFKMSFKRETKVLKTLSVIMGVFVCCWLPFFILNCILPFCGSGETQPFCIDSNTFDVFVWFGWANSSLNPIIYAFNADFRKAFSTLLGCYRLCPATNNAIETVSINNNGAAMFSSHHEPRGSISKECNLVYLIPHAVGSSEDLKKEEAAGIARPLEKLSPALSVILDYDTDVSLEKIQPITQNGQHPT
D3, sequence (P35462 whole entry): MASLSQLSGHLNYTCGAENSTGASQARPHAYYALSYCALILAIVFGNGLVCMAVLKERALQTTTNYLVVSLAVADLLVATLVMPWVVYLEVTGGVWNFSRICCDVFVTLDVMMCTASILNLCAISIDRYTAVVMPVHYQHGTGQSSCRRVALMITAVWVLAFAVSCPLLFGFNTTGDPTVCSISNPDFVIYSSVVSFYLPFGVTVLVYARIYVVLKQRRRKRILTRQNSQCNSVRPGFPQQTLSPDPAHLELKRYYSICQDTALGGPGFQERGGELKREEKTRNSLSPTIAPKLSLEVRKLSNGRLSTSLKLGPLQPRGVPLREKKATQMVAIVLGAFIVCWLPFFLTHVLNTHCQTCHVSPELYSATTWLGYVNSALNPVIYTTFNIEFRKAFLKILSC
H3, sequence (Q9JI35 whole entry): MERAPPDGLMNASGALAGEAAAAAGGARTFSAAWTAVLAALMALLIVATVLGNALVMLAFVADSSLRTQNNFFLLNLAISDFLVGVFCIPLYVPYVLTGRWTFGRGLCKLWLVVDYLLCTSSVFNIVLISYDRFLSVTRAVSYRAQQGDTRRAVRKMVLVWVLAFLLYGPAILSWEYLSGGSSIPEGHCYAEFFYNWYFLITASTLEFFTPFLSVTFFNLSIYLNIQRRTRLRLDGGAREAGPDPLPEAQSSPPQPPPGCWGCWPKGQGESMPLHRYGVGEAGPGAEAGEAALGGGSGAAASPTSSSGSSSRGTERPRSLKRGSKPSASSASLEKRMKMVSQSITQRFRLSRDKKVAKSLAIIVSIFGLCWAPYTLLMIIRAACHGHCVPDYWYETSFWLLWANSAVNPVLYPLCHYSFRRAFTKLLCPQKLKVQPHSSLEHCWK
5-HT1b, sequence (P28222 whole entry): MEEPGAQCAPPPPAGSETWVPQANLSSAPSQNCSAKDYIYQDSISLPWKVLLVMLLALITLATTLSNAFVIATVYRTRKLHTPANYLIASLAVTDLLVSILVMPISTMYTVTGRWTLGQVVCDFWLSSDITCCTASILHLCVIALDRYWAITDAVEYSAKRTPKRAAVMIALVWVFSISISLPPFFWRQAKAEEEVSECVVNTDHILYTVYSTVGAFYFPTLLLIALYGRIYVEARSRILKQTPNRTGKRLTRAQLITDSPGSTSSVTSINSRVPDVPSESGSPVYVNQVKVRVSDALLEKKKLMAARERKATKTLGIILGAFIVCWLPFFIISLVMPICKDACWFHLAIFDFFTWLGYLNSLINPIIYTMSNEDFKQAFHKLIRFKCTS
5-HT1e, sequence (P28566 whole entry): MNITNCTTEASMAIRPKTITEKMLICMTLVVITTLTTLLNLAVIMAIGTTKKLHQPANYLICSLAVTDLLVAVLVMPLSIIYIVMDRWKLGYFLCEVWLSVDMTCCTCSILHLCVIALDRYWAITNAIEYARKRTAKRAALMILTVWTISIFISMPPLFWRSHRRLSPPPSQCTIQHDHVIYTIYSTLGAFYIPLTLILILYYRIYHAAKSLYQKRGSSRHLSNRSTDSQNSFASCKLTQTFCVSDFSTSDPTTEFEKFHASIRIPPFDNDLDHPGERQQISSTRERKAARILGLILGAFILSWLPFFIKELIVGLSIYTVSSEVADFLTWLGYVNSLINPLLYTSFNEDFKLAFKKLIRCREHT

`N=C(N)Nc1ccc2[nH]c3c(c2c1)C[C@@]1(O)[C@H]2Cc4ccc(O)c5c4[C@@]1(CCN2CC1CC1)[C@H]3O5` [GNTI, 5′-guanidinonaltrindole]: the Ki on α1D is no less than 10 µM; at 5-HT2c it was no less than 10 µM; in [1] it was no less than 10 µM; on α1B (setting [2]), 8.9 µM; on α1B (Ki, binding curve File S1 (GNTI page), Alpha1B Receptor, [125I]HEAT (0.05 nM)) it was 8.91 µM; on H3, no less than 10 µM. In addition, the Ki at M4 is no less than 10 µM; at 5-HT1e, no less than 10 µM; on D1 it was no less than 10 µM; on α2A (Ki, [3H] radioligand Rauwolscine, Human, Cloned), no less than 10 µM; on D3 it was no less than 10 µM; on 5-HT1b, no less than 10 µM. Also, in the data set on mice (30 mg/kg i.p.), the “time to ataxia, convulsions and death” value is no more than 18 min. For the same molecule, in the data set with mice (30 mg/kg i.p.), the toxic signs result is “ataxia, convulsions and death”.

Take `CC(C)[C@@H](CN1CC[C@@](C)(c2cccc(O)c2)[C@@H](C)C1)NC(=O)[C@H]1Cc2ccc(O)cc2CN1` [JDTic]: the Ki is no less than 10 µM on α1D (read-out: Ki); no less than 10 µM on 5-HT2c ([3H] radioligand Mesulergine, Human, Cloned, read-out: Ki); no less than 10 µM in data set [1]; 4.81 µM on α1B ([3H] radioligand Prazosin, Human, Cloned, read-out: Ki); 4.81 µM at α1B (binding curve File S1 (JDTic page), Alpha1B Receptor, [125I]HEAT (0.12 nM), read-out: Ki); 4.8 µM at α1B (α1B, radioligand displacement (Table 1), read-out: K i). For the same molecule, the Ki on H3 ([3H] radioligand α-methylhistamine, Guinea Pig, Cloned, read-out: Ki) was no less than 10 µM; at M4 ([3H] radioligand QNB, Human, Cloned, read-out: Ki), no less than 10 µM; on 5-HT1e ([3H] radioligand 5HT, Human, Cloned, read-out: Ki) it was no less than 10 µM; at D1 ([3H] radioligand SCH23390, Human, Cloned, read-out: Ki), no less than 10 µM; at α2A it was no less than 10 µM; at D3 ([3H] radioligand N-Methylspiperone, Human, Cloned, read-out: Ki) it was no less than 10 µM. Besides, the Ki on 5-HT1b ([3H] radioligand GR125743, Human, Cloned, read-out: Ki) was no less than 10 µM. In addition, in the data set with mice (100 mg/kg), the toxic signs result is “no convulsions or deaths”.

On to `Oc1ccc2c3c1O[C@H]1c4[nH]c5c(c4C[C@@]4(O)[C@@H](C2)N(CC2CC2)CC[C@]314)C[C@@]1(O)[C@H]2Cc3ccc(O)c4c3[C@@]1(CCN2CC1CC1)[C@H]5O4` [nor-BNI, Nor-binaltorphimine], for which the Ki (on α1D; at 5-HT2c; in data set [1]; at α1B (setting [2]); at H3; on M4) was no less than 10 µM throughout. Moreover, the Ki on 5-HT1e was no less than 10 µM; at D1, no less than 10 µM; on α2A (K i, α2A, radioligand displacement (Table 1)) it was 4.9 µM; on D3, no less than 10 µM; at 5-HT1b, no less than 10 µM. Also, in data set [1] (at 10 µM), the “displacement of [3H]MK-801 from the phencyclidine (cation channel) site” value is “did not displace”. Moreover, the toxic signs entry in the data set with mice (100 mg/kg) is “no convulsions or deaths”.
